Legend:
Assay type in all cases: cell-based
[1] = test system: MMP-9 protein secretion by monocytes (THP-1 cells) and macrophages; experiment: MMP-9 secreted protein in culture supernatants by sandwich ELISA; details: for cross-talk effect of IL-6 and TNF-α stimulation on the secretion of MMP-9 by monocytes: then IL-6/TNF-α for 24 hr; for crosstalk effect of IL-6 on TNF-α's enhancement of MMP-9 expression and secretion: summary statement, concentration not given; for MMP-9 protein secretion levels: monocytes and macrophages, stimulated 24 hr, FIGS. 2A-2B
Experimental: Monocytes (THP-1 cells and macrophages were cultured in 12-well plates (Costar, Corning Incorporated, Corning, N.Y., USA) at a cell density of 1/10^6 cells/well. Cells were pre-incubated with gp130 inhibitor (SC-144, 1.5 μM) or JAK2 inhibitor (AG-490, 30 μM) for 1 hour and then stimulated with IL-6 or TNF-α or IL-6/TNF-α for 24 hr at 37° C. (with humidity) in 5% CO2. Control cells were incubated with culture media only. Culture media and cells were harvested and MMP9 mRNA and protein expression levels were assessed by real-time PCR (RT-PCR) and ELISA. MMP-9 secreted protein in the supernatants of monocytes and macrophages stimulated with IL-6, TNF-α, or IL-6 and TNF-α was quantified using sandwich ELISA following the manufacturers instructions (SMP900, R&D systems, Minneapolis, USA). As illustrated in FIGS. 2A-2B. […] As illustrated in FIGS. 3A-3B, this robust cross-talk effect of IL-6 and TNF-α stimulation on the secretion of MMP-9 by monocytes may be extinguished by administration of either a JAK2 inhibitor AG-490, See FIG. 3A) or a gp130 inhibitor (SC-144, See FIG. 3B).

[2] = test system: MMP-9 proteolytic activity in conditioned media of THP-1 cells; experiment: MMP9 proteolytic activity measured using gelatin zymography; details: monocytes (THP-1), 24 hours incubation
Experimental: THP-1 cells were incubated with TNF-α and IL-6. After incubation for 24 hours, conditioned media were collected and mixed with Zymogram sample buffer (BioRad; 62.5 mM Tris-HCl, pH.6.8, 25% glycerol, 4% SDS and 0.01% bromophenol blue) and then loaded on to a 10% polyacrylamide gel with gelatin (10% Ready Gel Zymogram Gel, BioRad) for electrophoresis. The gel was incubated with renaturing buffer BioRad (2.5% Triton X-100) for 1 hour at room temperature and Incubated with zonogram developing buffer.

[3] = test system: MMP-9 mRNA expression in monocytes (THP-1 cells) and macrophages; experiment: MMP-9 mRNA expression by real-time PCR (RT-PCR); details: stimulated 24 hr, FIGS. 1A and 1B
Experimental: Monocytes (THP-1 cells and macrophages were cultured in 12-well plates (Costar, Corning Incorporated, Corning, N.Y., USA) at a cell density of 1/10^6 cells/well. Cells were pre-incubated with gp130 inhibitor (SC-144, 1.5 μM) or JAK2 inhibitor (AG-490, 30 μM) for 1 hour and then stimulated with IL-6 or TNF-α or IL-6/TNF-α for 24 hr at 37° C. (with humidity) in 5% CO2. Control cells were incubated with culture media only. Culture media and cells were harvested and MMP9 mRNA and protein expression levels were assessed by real-time PCR (RT-PCR) and ELISA.
Total RNA was extracted using RNeasy Mini Kit (Qiagen, Valencia, Calif.; USA). […] For RT-PCR, cDNA template (50 ng) was amplified using inventoried TaqMan Gene Expression Assay products (MMP-9; Hs00234579_m1; GAPDH; Bs0392909_g1; containing two gene-specific printers and one TaqMan MGB probe (6-FAM dye-labeled) with a TaqMan Gene Expression Master Mix (Applied Biosystems, Foster City, Calif., USA) and a 7500 Fast Real-Time PCR System (Applied Biosystems, Foster City, Calif., USA). The mRNA levels were normalized against GAPDH mRNA and MMP-9 mRNA expression relative to control was calculated using the 2^−ΔΔCt-method. Relative mRNA expression is shown as told expression over average of control gene expression. […] The results were analyzed statistically and P<0.05 was considered significant.

Molecule	cross-talk effect of IL-6 and TNF-α stimulation on the secretion of MMP-9 by monocytes ([1]; SC-144 1.5 μM pre-incubated 1 hour, FIG. 3B)	crosstalk effect of IL-6 on TNF-α's enhancement of MMP-9 expression and secretion [1]	MMP-9 protein secretion levels [1]	MMP-9 proteolytic activity [2]	MMP-9 mRNA expression relative to control [3]	cross-talk effect of IL-6 and TNF-α stimulation on the secretion of MMP-9 by monocytes ([1]; AG-490 30 μM pre-incubated 1 hour, FIG. 3A)
O=C(NNc1nc2cc(F)ccc2n2cccc12)c1cnccn1 [SC-144]	extinguished	suppress				
interleukin-6 [IL-6]			minimally effected	minimal		
tumor necrosis factor alpha [TNF-α]			increased	lesser	increase	
N#C/C(=C\c1ccc(O)c(O)c1)C(=O)NCc1ccccc1 [AG490]		suppress				extinguished
